Experimental data published in patent publication US11925638B2, “Pharmaceutical composition comprising diamino heterocyclic carboxamide compound as active ingredient” (ASTELLAS PHARMA INC., priority 2014, dated 2024).

Legend:
[1] = test system: erlotinib-resistant HCC827 subcutaneous tumor; test: Anti-tumor evaluation (in vivo), erlotinib-resistant HCC827 subcutaneous cancer-bearing mouse model; details: erlotinib 12.5 mg/kg/day and/or compound A 30 mg/kg/day, QD, po; for tumor volume on the starting day of administration: baseline, measured the day before start
Text: HCC827 cells (EGFR mutation-positive lung cancer cell line) were subcutaneously implanted to a dorsal part of an immunodeficient mouse (CB17/Icr-Prkdcscid/CrlCrlj, male, 4-week-old (Charles River Laboratories Japan, Inc.)) to prepare HCC827 subcutaneous cancer-bearing mice.

[2] = test system: phosphorylated AXL in AXL/PC9 cells; test: Western blot of phosphorylated AXL in AXL/PC9 cells; format: cell-based, human; details: compound A at 100 nM, phospho-AXL antibody
PC9 vec. cells = test: Proliferation inhibition (in vitro), PC9 vec. control cells, CellTiter-Glo; format: cell-based; details: Homo sapiens, 96 h, 4 days culture
Experimental: The obtained PC9/AXL cells and PC9 vec. cells were inoculated into a 384-well plate, respectively, using an RPMI 1640 medium (Sigma). On the same day, a DMSO solution of the test compound depending on the test concentration or DMSO alone was added thereto, followed by culturing at 37° C. for 4 days in the presence of 5% CO2. Thereafter, the number of cells was measured using a cell count reagent (CellTiter-Glo™ Luminescent Cell Viability Assay (Promega)).

Compound | tumor volume on the starting day of administration [1] [mm^3] | tumor decreasing effect [1] | tumor volume after 12 days [1] [mm^3] | AXL phosphorylation [2] | IC50 (PC9 vec. cells) [nM]
CCc1nc(C(N)=O)c(Nc2ccc(N3CCC(N4CCN(C)CC4)CC3)c(OC)c2)nc1NC1CCOCC1 [compound A, 6-ethyl-3-({3-methoxy-4-[4-(4-methylpiperazin-1-yl)piperidin-1-yl]phenyl}amino)-5-(tetrahydro-2H-pyran-4-ylamino)pyrazine-2-carboxamide] | 339.2 | did not show a tumor decreasing effect | 739.2 | completely inhibited | 
C#Cc1cccc(Nc2ncnc3cc(OCCOC)c(OCCOC)cc23)c1 [erlotinib, reference compound] | 335.8 | did not show a tumor decreasing effect |  |  | 108
